Measurements: patent US5719174A, “Indenoindole compounds for use in organ preservation” (priority 1993, dated 1998)
Entries after “also recorded” stand apart in the source; their conditions may differ.

Columns and labels:
[1] = system: oxidation of lipoproteins in human plasma (mouse peritoneal macrophages); assay: Oxidation of lipoproteins in human plasma in the presence of mouse peritoneal macrophages; type: cell-based, human plasma; mouse cells
[2] = system: isolated perfused rat heart; assay: Postischemic recovery of the isolated perfused (Langendorff) heart after six hours cold ischemia; settings: for prevention of ischemic and reperfusion damage to isolated perfused rat heart: additive to organ preservation solutions
Experimental: Experiments were designed to investigate the effect on the myocardial recovery after six hours cold ischemia when an antioxidative agent compound II, was added to a crystalloid cardioplegic solution, such as Plegisol (Abbott). The retrogradely perfused (Langendorff) isolated rat heart with an intra-ventricular balloon was used. The hearts were single flushed perfused (10 ml, 4° C.) with either plain Plegisol or Plegisol supplemented with 1 μmol/l of compound II. The hearts were then stored for 6 hours in the respective solution at 4° C. In a third group hearts were single flush perfused with Plegisol without storage of the hems.

[3] = system: lipid peroxidation in renal tissue; assay: Ex vivo hypoxia and reoxygenation of renal tissue after oral administration to mice; type: in vivo, mouse; settings: for time after administration up till which lipid peroxidation was abolished: oral dose of 50 mg/kg; for inhibition of lipid peroxidation in renal tissue subjected to ex vivo hypoxia and reoxygenation: oral dose of 50 mg/kg (dose for compounds I and II)
[4] = system: lipid peroxidation; assay: Ascorbate/Fe^2+ -dependent lipid peroxidation; type: biochemical; settings: ascorbate/Fe^2+ model, in vitro
Description: The indenoindole compounds are efficient as flee-radical scavengers or antioxidants. An assay system measuring the concentration of the compounds of formulas I and II required to inhibit lipid peroxidation by 50% (IC50) was used. The assay system, ascorbate/Fe^2+ -dependent lipid peroxidation, was the same system used in EP-A 409 410 and detailed information about the system is given in said patent specification.

[5] = system: isolated heart cells (myocytes); assay: Inhibition of reoxygenation damage in isolated heart cells (LD-leakage); type: cell-based, rat; settings: for prevention of ischemic and reperfusion damage to isolated rat heart cells: additive to organ preservation solutions
Experimental: Hearts were collected from 2 and 6 days old rats and the ventricles were dissected free, placed in Hanks balanced salt solution without Ca^2+ and Mg^2+ but with 0.35 g/l sodium-carbonate and cut in small pieces. The cells were dispersed in the same solution but supplemented with collagenase solution (type 1, 0.8 mg/ml) at 37° C. for 10 minutes and centrifuged, 160 xg for 5 minutes. Subsequently, 5 serial 20 minutes digestions were performed. The cells from the initial digestion were discarded. Centrifugation was made after each 20 minutes period and the collage nase solution was changed to Ham's F 10 culture medium, supplemented with 10% fetal bovine serum (FBS), glutamine 2 mM, penicillin 50 IU/ml and streptomycin 50 μg/ml. A modified method to enrich the isolation of myocytes, were used, including replaiting the cells twice for 30 and 90 min, respectively. The myocytes were plated on 35 mm plastic culture dishes at a density of approximately 9×10^5 cells/ml (1.8×10^6 cells/dish). The cells were kept in culture for 6 days at 37° C. and 5% CO2 under aerobic conditions in a Forma Scientific carbon dioxide incubator, 5% CO2. During this period the cells reached confluence and were beating spontaneously at an approximate frequency of 20-40 beats/min. Each culture dish contained 0.9±0.2 mg protein. The supplemented F10-medium was changed each day. The antioxidant compound II was added to the culture medium in ethanol, reaching a final concentration of 0.1% ethanol. The final concentration of compound II in the culture medium was 0.01, 0.1, 1.0 or 5.0 μmol/l. Before starting the experiment the medium above the myocytes were removed and changed to fresh F10-medium supplemented with glutamine, which was made hypoxic by argon bubbling for 1 hour before addition to the cells. The culture plates were transferred to specially designed air tight thermostated chambers. The experiment lasted for 300 min including 60 min hypoxia, when nitrogen (95% N2, 5% CO2) was slowly gassed above the cells, followed by 240 min reoxygenation (95% O2, 5% CO2). Cell viability was determined by leakage of LD into the medium, and was analyzed after various times 1, 30, 60, 90, 120, 180, 240 and 300 min.

[6] = system: rat bone marrow; assay: Ischemic and reperfusion damage to rat bone marrow; settings: additive to organ preservation solutions
[7] = system: lipid peroxidation in renal tissue; assay: In vitro hypoxia and reoxygenation of kidney tissue (TBARS formation); type: cell-based; settings: pH 7.4; rat kidney slices, 37° C., pH 7.40, 40 min hypoxia (argon), 30 min reoxygenation; read-out: pIC50, -log of the concentration needed to reduce TBARS formation by 50% of the corresponding vehicle value (converted)
Experimental: Lipid peroxidation was also tested in renal tissue. Samples were obtained from anesthetized rats, cut into 2 mm slices and put into 50 ml Erlenmeyer flasks containing 40 mmol 1^-1 Hepes buffer (pH 7.40) 37° C. (10-100 mg tissue per 4 ml buffer). The tissue was made hypoxic for 20 min by bubbling a fine stream of argon gas through the buffer. After that an antioxidant or the corresponding vehicle was added to the buffer and the tissue was kept under argon for an additional period of 20 min. The sample was then reoxygenated by vigourous bubbling of the buffer with 95.5% O2 :CO2. After 30 min reoxygenation the iron chelator deferoxamine mesylate (Ciba Geigy AG, Basel, Switzerland) was added (final concentration 45 μmol 1^-1). The sample was homogenized on ice, quickly frozen in dry-ice and alcohol and stored at -70° C. After thawing the formation of 2-thiobarbituric acid-reactive material (TBARS) was determined (Svensson et al Scand J Clin Invest 1993:53). The potencies of the antioxidants (pIC50 i.e. -log of the concentration (antioxidant) needed to reduce TBARS formation by 50% of the corresponding vehicle value) was for compound I: 6.8 and for compound II: 6.8.

[8] = system: oxidation of lipoproteins in human plasma (rabbit smooth muscle cells); assay: Oxidation of lipoproteins in human plasma in the presence of rabbit smooth muscle cells; type: cell-based
[9] = system: rat kidney; assay: Ischemic and reperfusion damage to rat kidney; settings: additive to organ preservation solutions
[10] = system: rat liver; assay: Ischemic and reperfusion damage to rat liver; settings: additive to organ preservation solutions

| pIC50, inhibition of ascorbate/Fe^2+ -dependent lipid peroxidation [4] | IC50 [7] | Structure (SMILES) | prevention of oxidation of lipoproteins in human plasma [1] | prevention of ischemic and reperfusion damage to isolated perfused rat heart [2] | time after administration up till which lipid peroxidation was abolished [3] | inhibition of lipid peroxidation in renal tissue subjected to ex vivo hypoxia and reoxygenation [3] | prevention of ischemic and reperfusion damage to isolated rat heart cells [5] | prevention of ischemic and reperfusion damage to rat bone marrow [6] | prevention of oxidation of lipoproteins in human plasma [8] | prevention of ischemic and reperfusion damage to rat kidney [9] | prevention of ischemic and reperfusion damage to rat liver [10] | postischemic LVDP compared to plain Plegisol, in words ([2]; Plegisol with 1 μmol/l, 6 hours at 4° C.) | postischemic left ventricular developed pressure (LVDP) ([2]; Plegisol with 1 μmol/l, 6 hours at 4° C., mean±SEM, plain Plegisol 57±11%, without storage 89±1%) | inhibition at 1 µM ([5]; Rattus norvegicus, 1 μmol/l, 60 min hypoxia, 240 min reoxygenation, read-out: reduction of the damage (LD-leakage)) | IC50 ([5]; Rattus norvegicus, 60 min hypoxia, 240 min reoxygenation, read-out: calculated pIC50 (-logIC50), LD-leakage (converted)) | time after administration up to which inhibitory effect on lipid peroxidation could be detected ([3]; dose not separately printed for compound III) |
| --- | --- | --- | --- | --- | --- | --- | --- | --- | --- | --- | --- | --- | --- | --- | --- | --- |
| 8.0 | 158 nM | COc1cc(C)c2c(c1)C1Cc3ccccc3C1N2 (stereo not drawn) [Compound I, 8-Methoxy-6-methyl-THII] | prevent efficiently oxidation of lipoproteins | prevent ischemic and reperfusion damage | ≤ 6 h | abolished lipid peroxidation in renal tissue | prevent ischemic and reperfusion damage | prevent ischemic and reperfusion damage | prevent efficiently oxidation of lipoproteins | prevent ischemic and reperfusion damage | prevent ischemic and reperfusion damage | – | – | – | – | – |
| 8.2 | 158 nM | COc1cc(C)c2c(c1)C1c3ccccc3CC1N2 (stereo not drawn) [Compound II, 9-Methoxy-7-methyl-iso-THII] | prevent efficiently oxidation of lipoproteins | prevent ischemic and reperfusion damage | ≤ 6 h | abolished lipid peroxidation in renal tissue | prevent ischemic and reperfusion damage | prevent ischemic and reperfusion damage | prevent efficiently oxidation of lipoproteins | prevent ischemic and reperfusion damage | prevent ischemic and reperfusion damage | significantly improved; also recorded: drastically improves the functional recovery of rat hearts | 90±9 % of preischemic value | 90% | 31.6 nM | – |
| 7.4 | – | Cc1cc(C)c2c(c1)C1(C)Cc3ccccc3C1(C)N2 (stereo not drawn) [Compound III, 4b,6,8,9b-Tetramethyl-THll, reference compound] | – | – | – | only weak inhibitory effect on lipid peroxidation | – | – | – | – | – | – | – | – | – | up to 30 min |
| 5.0 | – | Cc1c(C)c2c(c(C)c1O)CCC(C)(CCCC(C)CCCC(C)CCCC(C)C)O2 (stereo not drawn) [α-Tocopherol, reference compound] | – | – | – | – | – | – | – | – | – | – | – | – | – | – |
